In patent publication US8293738B2, “Indazole inhibitors of kinase” (Abbott Laboratories, priority 2010, dated 2012):

Experiments:
Aurora B = biological target: T1, Aurora B (Homo sapiens, UniProt Q96GD4); experiment: Aurora B enzyme assay (time-resolved fluorescence, histone H3 peptide); type: biochemical; conditions: 1 mM ATP, 1 hour
T1 construct: Active Aurora B enzyme (recombinant residues 1-344)
Protocol: To determine Aurora B activity of representative compounds of the invention, Active Aurora B enzyme (recombinant residues 1-344) and INCENP (recombinant GST fusion protein (Upstate)) were incubated in wells of a 384 well plate with biotinylted histone H3 peptide residues 1-21 (Upstate), 1 mM ATP, and various concentrations of inhibitors in a HEPES buffer, pH 7.4 containing MgCl2, sodium othrovanadate, and Triton X-100. After 1 hour, the reaction was stopped with EDTA and anti-phospho-histone H3 Europium Cryptate (Cis-Bio) and SA-APC (Phycolink, Prozyme) were added to detect the phosphopeptide. The amount of phosphorylation was determined by the time-resolved fluorescence ratio of signals at 665 nm and 615 nm. The IC50's were calculated by an exponential fit of the inhibition values with the inhibitor concentrations using Assay Explorer software.

Aurora A = biological target: T2, Aurora A (Homo sapiens, UniProt O14965); experiment: Aurora A enzyme assay (time-resolved fluorescence, STK substrate-2); type: biochemical; conditions: 1 mM ATP, 1 hour
T2 sequence (O14965 1-403): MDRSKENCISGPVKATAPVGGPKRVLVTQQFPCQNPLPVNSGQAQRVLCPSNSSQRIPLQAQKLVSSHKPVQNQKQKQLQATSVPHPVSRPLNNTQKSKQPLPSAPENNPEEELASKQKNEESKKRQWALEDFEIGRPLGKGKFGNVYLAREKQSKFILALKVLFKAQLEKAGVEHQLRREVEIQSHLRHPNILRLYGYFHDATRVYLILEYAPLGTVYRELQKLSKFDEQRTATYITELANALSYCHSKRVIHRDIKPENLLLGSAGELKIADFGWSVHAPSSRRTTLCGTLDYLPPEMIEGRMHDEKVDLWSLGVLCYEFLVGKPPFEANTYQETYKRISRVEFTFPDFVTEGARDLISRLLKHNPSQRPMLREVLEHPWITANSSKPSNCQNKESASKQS
Protocol: To determine Aurora A and C activity of representative compounds of the invention, Active Aurora A or C enzyme was incubated in wells of a 384 well plate with biotinylated STK substrate-2 (Upstate), 1 mM ATP, and various concentrations of inhibitors in a Hepes buffer, pH 7.4 containing MgCl2, sodium othrovanadate, and Triton X-100. After 1 hour, the reaction was stopped with EDTA and anti-phospho-STK antibody Europium Cryptate (Upstate) and SA-XL665 (Upstate) were added to detect the phosphopeptide. The amount of phosphorylation was determined by the time-resolved fluorescence ratio of signals at 665 nm and 615 nm. The IC50s were calculated by an exponential fit of the inhibition values with the inhibitor concentrations using Assay Explorer software.

KDR [1] = biological target: T3, KDR (Homo sapiens, UniProt P35968); experiment: KDR cell assay; type: cell-based
Target sequence in this assay (P35968 20-1356, species assumed): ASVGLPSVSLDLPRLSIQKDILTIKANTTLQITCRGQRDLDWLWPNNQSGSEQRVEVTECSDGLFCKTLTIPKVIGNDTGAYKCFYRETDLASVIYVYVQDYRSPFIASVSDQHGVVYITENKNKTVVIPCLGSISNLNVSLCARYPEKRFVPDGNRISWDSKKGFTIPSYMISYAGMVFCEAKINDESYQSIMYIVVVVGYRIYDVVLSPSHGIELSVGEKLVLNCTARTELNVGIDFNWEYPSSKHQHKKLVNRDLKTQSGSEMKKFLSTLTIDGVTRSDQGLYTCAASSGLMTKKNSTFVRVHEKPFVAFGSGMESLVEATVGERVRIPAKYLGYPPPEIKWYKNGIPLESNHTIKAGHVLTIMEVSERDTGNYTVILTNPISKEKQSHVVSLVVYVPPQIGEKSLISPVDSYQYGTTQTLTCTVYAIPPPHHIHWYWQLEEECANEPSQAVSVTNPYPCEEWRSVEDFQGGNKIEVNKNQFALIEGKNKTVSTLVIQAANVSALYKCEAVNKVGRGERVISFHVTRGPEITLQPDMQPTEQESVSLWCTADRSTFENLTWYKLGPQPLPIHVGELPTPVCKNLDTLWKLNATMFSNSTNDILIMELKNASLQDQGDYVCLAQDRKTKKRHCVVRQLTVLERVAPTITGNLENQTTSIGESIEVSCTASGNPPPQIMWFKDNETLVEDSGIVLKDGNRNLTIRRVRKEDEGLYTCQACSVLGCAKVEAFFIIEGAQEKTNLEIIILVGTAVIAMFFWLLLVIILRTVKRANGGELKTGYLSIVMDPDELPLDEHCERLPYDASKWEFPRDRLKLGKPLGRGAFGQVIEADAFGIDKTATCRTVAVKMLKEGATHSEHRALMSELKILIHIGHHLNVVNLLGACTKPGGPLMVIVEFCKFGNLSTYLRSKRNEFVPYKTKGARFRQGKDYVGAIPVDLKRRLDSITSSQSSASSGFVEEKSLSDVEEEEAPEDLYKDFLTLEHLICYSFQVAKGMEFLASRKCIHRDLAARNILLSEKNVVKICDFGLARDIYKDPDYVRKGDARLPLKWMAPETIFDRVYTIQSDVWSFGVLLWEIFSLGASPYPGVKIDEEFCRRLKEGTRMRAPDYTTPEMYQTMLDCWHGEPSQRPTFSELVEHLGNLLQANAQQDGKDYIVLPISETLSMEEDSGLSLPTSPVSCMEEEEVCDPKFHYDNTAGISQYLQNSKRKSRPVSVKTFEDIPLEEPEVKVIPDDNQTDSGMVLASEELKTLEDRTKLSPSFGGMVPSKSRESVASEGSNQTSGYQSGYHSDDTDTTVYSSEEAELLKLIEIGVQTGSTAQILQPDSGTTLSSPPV

[2] = test system: H1299 cells (Human Non-Small Cell Lung Carcinoma); experiment: Induction of polyploidy in H1299 cells, high content analysis; type: cell-based; conditions: NCI-H1299 cells, 48 hours, polyploid = nuclear area >750μ2, read-out: Polyploid HCA IC50
Protocol: To determine the induction of polyploidy in H1299 cells (Human Non-Small Cell Lung Carcinoma), NCI-H1299 were seeded (4K/well) into 96-well culture plates (tissue culture grade, black, flat-clear bottom) and incubated overnight to produce cell-to-plate adherance Inhibitors at varying concentrations were added into duplicate wells containing cells and culture media (RPMI 1640, 10% fetal calf serum) and incubated at 37 C for 48 hours. The plates were then washed with PBS and the adherent cells fixed by incubating with 3% formalin for 1 hour. After washing four times with PBS, the cells were then stained with Hoechst and subjected to fluorescent (3601/460e) microscopic high content analysis to determine the effect of inhibitors on nuclear size. Polyploid cells (>4N) were defined as those having nuclear area >750μ2. […]

KDR [3] = biological target: T3, KDR; experiment: KDR HTRF in vitro kinase assay; type: biochemical; design: purified enzyme (His6-KDR 789-1354, MW 63 kD); conditions: 1 mM ATP, 60 minutes
Protocol: To determine the activity of the various kinases, a homogenous time-resolved fluorescence (HTRF) in vitro kinase assay was used. (Mathis, G., HTRF(R) Technology. J Biomol Screen, 1999. 4(6): p. 309-314; Alfred J. Kolb, Paul V. Kaplita, David J. Hayes, Young-Whan Park, Christine Pernell, John S. Major and Gerard Mathis, Drug Discovery Today, 1998, 3, 333-342.)
For example for KDR, 7 ng/well of purified enzyme (His6-KDR 789-1354, MW 63 kD) was mixed with 0.5 μM N-biotinylated substrate (Biotin-Ahx-AEEEYFFLA-amide (SEQ. ID. 1)), various concentrations of inhibitor in reaction buffer (50 mM HEPES, pH 7.1, mM MgCl2, 2 mM MnCl2, 0.1% BSA and 1 mM DTT, […] final volume), ATP (1 mM final conc.) in a black 384-well plate. After 60 minutes incubation at room temperature, the reaction was quenched by addition of a buffered EDTA solution (final approximate concentrations: 30 mM EDTA, 0.1% BSA, 0.1% Triton X-100 and 0.24M KF) and a solution of revelation agents (to give 0.084 ng/well streptavidin-XL-665 (Cis-Bio) and 6.5 ng/well antiphsophotyrosine mAb PT66-K Europium kryptate) was added to the reaction mixture. The quenched reaction was allowed to stand at room temperature for 3 hours and was then read in a time-resolved fluorescence detector (InVision, Perkin-Elmer) at 620 nm and 665 nm sequentially with excitation. The ratio between the signal of 620 nm and 665 nm was used in the calculation of the IC50.
Target sequence in this assay (P35968 789-1354): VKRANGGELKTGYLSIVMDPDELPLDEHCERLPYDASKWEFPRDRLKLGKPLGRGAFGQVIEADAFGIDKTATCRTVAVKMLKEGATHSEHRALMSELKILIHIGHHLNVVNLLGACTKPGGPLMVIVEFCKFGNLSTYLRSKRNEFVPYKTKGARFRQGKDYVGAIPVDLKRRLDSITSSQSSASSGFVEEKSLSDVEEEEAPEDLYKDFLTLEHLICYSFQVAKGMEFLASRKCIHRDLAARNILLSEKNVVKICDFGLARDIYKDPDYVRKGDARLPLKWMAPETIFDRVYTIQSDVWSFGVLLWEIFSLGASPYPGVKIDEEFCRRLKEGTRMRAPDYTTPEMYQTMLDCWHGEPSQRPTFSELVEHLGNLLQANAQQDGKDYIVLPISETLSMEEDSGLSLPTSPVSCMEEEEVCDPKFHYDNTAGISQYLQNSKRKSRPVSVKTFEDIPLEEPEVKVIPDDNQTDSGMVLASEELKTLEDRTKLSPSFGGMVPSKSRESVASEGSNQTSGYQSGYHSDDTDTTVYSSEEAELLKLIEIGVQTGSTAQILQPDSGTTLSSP

T1 sequence (Q96GD4 whole entry, the tested form may be a part): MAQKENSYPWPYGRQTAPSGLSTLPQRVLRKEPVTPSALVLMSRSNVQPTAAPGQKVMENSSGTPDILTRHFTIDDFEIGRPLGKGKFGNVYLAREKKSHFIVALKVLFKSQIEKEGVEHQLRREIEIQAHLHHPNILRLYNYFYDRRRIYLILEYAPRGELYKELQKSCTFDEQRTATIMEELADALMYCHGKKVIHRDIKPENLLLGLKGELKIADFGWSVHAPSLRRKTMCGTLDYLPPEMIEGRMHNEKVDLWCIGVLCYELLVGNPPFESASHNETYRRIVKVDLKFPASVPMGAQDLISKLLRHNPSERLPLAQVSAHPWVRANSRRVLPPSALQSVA
T1 sequence (Q9NQS7 826-918 partner limits assumed): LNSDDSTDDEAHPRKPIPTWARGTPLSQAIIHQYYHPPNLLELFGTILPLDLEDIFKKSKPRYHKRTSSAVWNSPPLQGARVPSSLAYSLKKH

| IC50 (Aurora B) | IC50 (Aurora A) | IC50 (KDR [1]) | IC50 [2] | IC50 (KDR [3]) | SMILES |
| --- | --- | --- | --- | --- | --- |
| 32.7 nM | 221 nM | 300 nM | 14 nM | 76.3 nM | O=C(Nc1ccc(-c2ccc3c(-c4cn[nH]c4)n[nH]c3c2)cc1)Nc1cccc(F)c1 [Example 9, N-(3-fluorophenyl)-N′-{4-[3-(1H-pyrazol-4-yl)-1H-indazol-6-yl]phenyl}urea] |
| 32.5 nM | 267 nM | 47.5 nM | 1 nM | 14.8 nM | Cn1cc(-c2n[nH]c3cc(-c4ccc(NC(=O)Nc5cccc(Cl)c5)cc4)ccc23)cn1 [Example 22, N-(3-chlorophenyl)-N′-{4-[3-(1-methyl-1H-pyrazol-4-yl)-1H-indazol-6-yl]phenyl}urea] |
| 23.6 nM | 294 nM | 206 nM | 43 nM | 51.1 nM | O=C(Nc1ccc(-c2ccc3c(-c4cnn(CCO)c4)n[nH]c3c2)cc1)Nc1cccc(F)c1 [Example 10, N-(3-fluorophenyl)-N′-(4-{3-[1-(2-hydroxyethyl)-1H-pyrazol-4-yl]-1H-indazol-6-yl}phenyl)urea] |
| 17 nM | > 12500 nM | 46 nM | 6 nM | 27.4 nM | Cc1cccc(NC(=O)Nc2ccc(-c3ccc4c(-c5cnn(C)c5)n[nH]c4c3)cc2)c1 [Example 2, N-(3-methylphenyl)-N′-{4-[3-(1-methyl-1H-pyrazol-4-yl)-1H-indazol-6-yl]phenyl}urea] |
| 24.9 nM | 246 nM | 355 nM | 10 nM | 80.7 nM | Cn1cc(-c2n[nH]c3cc(-c4ccc(NC(=O)Nc5ccccc5Cl)cc4)ccc23)cn1 [Example 23, N-(2-chlorophenyl)-N′-{4-[3-(1-methyl-1H-pyrazol-4-yl)-1H-indazol-6-yl]phenyl}urea] |
| 40.5 nM | 2490 nM | 316 nM | 35 nM | 45 nM | Cc1cccc(NC(=O)Nc2ccc(-c3ccc4c(-c5cnn[nH]5)n[nH]c4c3)cc2)c1 [Example 3, N-(3-methylphenyl)-N′-{4-[3-(1H-1,2,3-triazol-5-yl)-1H-indazol-6-yl]phenyl}urea] |
| 10.3 nM | 299 nM | 123 nM | 1 nM | 32.2 nM | Cc1cc(NC(=O)Nc2ccc(-c3ccc4c(-c5cnn(C)c5)n[nH]c4c3)cc2)no1 [Example 30, N-(5-methylisoxazol-3-yl)-N′-{4-[3-(1-methyl-1H-pyrazol-4-yl)-1H-indazol-6-yl]phenyl}urea] |
| 62.3 nM | > 12500 nM |  | 13 nM | 325 nM | Cn1cc(-c2n[nH]c3cc(-c4ccc(NC(=O)Nc5ccccc5C(F)(F)F)cc4)ccc23)cn1 [Example 26, N-{4-[3-(1-methyl-1H-pyrazol-4-yl)-1H-indazol-6-yl]phenyl}-N′-[2-(trifluoromethyl)phenyl]urea] |
| 10.9 nM | > 12500 nM | 135 nM | 216 nM | 44.6 nM | O=C(Nc1ccc(-c2ccc3c(-c4cnn(C5CCNCC5)c4)n[nH]c3c2)cc1)Nc1cccc(F)c1 [Example 16, N-(3-fluorophenyl)-N′-{4-[3-(1-piperidin-4-yl-1H-pyrazol-4-yl)-1H-indazol-6-yl]phenyl}urea] |
| 108 nM | 10800 nM | 216 nM |  | 45.1 nM | Cn1cc(-c2n[nH]c3cc(-c4ccc(NC(=O)Nc5ccc(C(F)(F)F)cc5)cc4)ccc23)cn1 [Example 19, N-{4-[3-(1-methyl-1H-pyrazol-4-yl)-1H-indazol-6-yl]phenyl}-N′-[4-(trifluoromethyl)phenyl]urea] |
| 24.7 nM | > 12500 nM |  | < 1 nM | 122 nM | Cn1cc(-c2n[nH]c3cc(-c4ccc(NC(=O)Nc5ccc(Cl)cc5)cc4)ccc23)cn1 [Example 20, N-(4-chlorophenyl)-N′-{4-[3-(1-methyl-1H-pyrazol-4-yl)-1H-indazol-6-yl]phenyl}urea] |
| 25 nM | 3340 nM |  | 113 nM | 137 nM | Cn1cc(-c2n[nH]c3cc(-c4cccc(CNC(=O)Nc5cccc(F)c5)c4)ccc23)cn1 [Example 29, N-(3-fluorophenyl)-N′-{3-[3-(1-methyl-1H-pyrazol-4-yl)-1H-indazol-6-yl]benzyl}urea] |
| 44.1 nM | > 12500 nM | 176 nM | 55 nM | 60 nM | Cc1cccc(NC(=O)Nc2ccc(-c3ccc4c(-c5cnn(CCO)c5)n[nH]c4c3)cc2)c1 [Example 12, N-(4-{3-[1-(2-hydroxyethyl)-1H-pyrazol-4-yl]-1H-indazol-6-yl}phenyl)-N′-(3-methylphenyl)urea] |
| 21.2 nM | 1000 nM | 187 nM | 18 nM | 86.1 nM | O=C(Nc1ccc(-c2ccc3c(-c4cnn(CCN5CCOCC5)c4)n[nH]c3c2)cc1)Nc1cccc(F)c1 [Example 6, N-(3-fluorophenyl)-N′-(4-{3-[1-(2-morpholin-4-ylethyl)-1H-pyrazol-4-yl]-1H-indazol-6-yl}phenyl)urea] |
| 23.3 nM | 3400 nM |  | 12 nM | 525 nM | O=C(Nc1ccc(-c2ccc3c(-c4ccn[nH]4)n[nH]c3c2)cc1)Nc1cccc(F)c1 [Example 8, N-(3-fluorophenyl)-N′-{4-[3-(1H-pyrazol-5-yl)-1H-indazol-6-yl]phenyl}urea] |
| 19.2 nM | 371 nM | 87.1 nM | 1 nM | 54.9 nM | Cn1cc(-c2n[nH]c3cc(-c4ccc(NC(=O)Nc5cccc(F)c5)cc4)ccc23)cn1 [Example 1, N-(3-fluorophenyl)-N′-{4-[3-(1-methyl-1H-pyrazol-4-yl)-1H-indazol-6-yl]phenyl}urea] |
